How the values were obtained:
[1] = Solid stability evaluation at 60° C. for 24 h; assay type: physicochemical
Description: The crystal form A of benzenesulfonate of the compound of formula (I) was used as a starting sample, and 100 polymorph screening tests under different conditions were set. The screening method comprises the following steps: adding an anti-solvent, slowly volatilizing, slowly cooling, suspending and stirring (room temperature and 50° C.), circularly heating and cooling, gas-solid permeation, gas-liquid diffusion, inducing and grinding a high polymer. From the X-ray powder diffraction (XRPD) results of the isolated solid, only one polymorph of benzenesulfonate, i.e., the starting form A, was found. A partial evaluation was completed in the salt form screening stage, so only solid stability evaluation at 60° C. for 24 h was performed.

[2] = Polarizing microscope (PLM) image, particle size; assay type: physicochemical; details: room temperature
Source text: The polarizing microscope data are acquired by an Axio Lab. A1 upright microscope at room temperature.

[3] = Hygroscopicity by dynamic vapor sorption (DVS); assay type: physicochemical; details: for After DVS test Whether the crystal form is changed: 0% RH to 95% RH to 0% RH; for After DVS test Whether the crystal form is changed / Hygroscopicity / Vapor sorption (25° C./80% RH): 25° C.; for Hygroscopicity / Vapor sorption (25° C./80% RH): DVS; for Risk evaluation: hygroscopicity evaluation
Description: Dynamic vapor sorption (DVS) curves are acquired on a DVS Intrinsic in SMS (Surface Measurement System). The relative humidity at 25° C. is corrected with the deliquescence points of LiCl, Mg(NO3)2 and KCl.
Hygroscopicity of the crystal form A of hydrochloride, the crystal form A of fumarate, the crystal form A of benzenesulfonate and the free base crystal form A prepared repeatedly was evaluated using a dynamic vapor sorption (DVS) instrument. Starting at 0% relative humidity (0% RH), the test acquired the percentage change of mass of the sample when humidity changed (0% RH to 95% RH to 0% RH) at a constant temperature of 25° C.

[4] = Dynamic solubility in water and three biological vehicles; assay type: physicochemical; details: for Crystal form change: XRPD of solid; for pH: filtrate
Description: The dynamic solubility of the crystal form A of hydrochloride, the crystal form A of fumarate, the crystal form A of benzenesulfonate and the free base crystal form A prepared repeatedly was evaluated in water and three biological vehicles. […] After centrifugation of the samples at each time point (0.45 μm PTFE filter head), the filtrate was determined for HPLC concentration and pH, and the centrifuged solid samples were tested for XRPD.

[5] = Pharmacokinetic assay (crystal form) in mice; assay type: in vivo; details: male, ICR, mouse, plasma, oral intragastric administration 10 mg/kg
Description: In vivo pharmacokinetic assay in mice was performed, wherein the used mice were 9 male ICR mice weighing 20-25 g and fasted overnight. 9 mice were taken and orally intragastrically administered with 10 mg/kg of the compound. […] Blood samples were centrifuged at 8000 rpm for 6 min at 4° C., and plasma was collected and stored at −20° C. The plasma at each time point was taken and added with 3-5 times of acetonitrile solution containing the internal standard for mixing, and the mixed solution was subjected to vortex mixing for 1 min, and centrifuging at 4° C. for 10 min at 13000 rpm. The supernatant was taken and added with 3 times of water for mixing. A proper amount of the mixed solution was taken for LC-MS/MS analysis. The major pharmacokinetic parameters were analyzed using WinNonlin 7.0 software and a non-compartmental model.

[6] = Stability of crystal form on storage for 6 months; assay type: physicochemical; details: 40° C./75% RH; 25° C./60% RH; 2° C. to 8° C.; polyethylene bag + aluminum foil bag
Source text: (the aluminum foil bag is made of light-proof materials and can be protected from light; and the polyethylene bag and the aluminum foil bag are sealed when being packaged).

Solid stability, 1 week = assay type: physicochemical; details: for Purity (area %): HPLC; for Crystal form change: XRPD
Description: The crystal form A of hydrochloride, the crystal form A of fumarate, the crystal form A of benzenesulfonate and the free base crystal form A prepared repeatedly were placed at 25° C./60% RH and 40° C./75% RH for 1 week, and then the physical and chemical stability of the samples were tested by XRPD and HPLC. […] No significant purity decrease or crystal form transformation occurred in any of the other samples after being placed under 2 conditions for 1 week.

[7] = SGF, 4 h, listed as Benzenesulfonate Crystal form
[8] = SGF, 24 h, listed as Benzenesulfonate Crystal form

Question: Which “Purity (area %)” value [1] does the source give for `C[C@H](Cc1cnn[nH]1)OCC(=O)N1Cc2cnc(NC3Cc4ccccc4C3)nc2C1` [Crystal form A of benzenesulfonate] here?
Answer: 98.23 area %

Question: What about the “Purity/initial purity (%)” value [1] of the same compound?
Answer: 100.0%

Question: And the Crystal form change ([1]; XRPD)?
Answer: No

Question: What about the particle size [2] of the same compound?
Answer: less than 50 μm

Question: And the “After DVS test Whether the crystal form is changed” value [3]?
Answer: No

Question: What about the Hygroscopicity [3] of the same compound?
Answer: Slightly

Question: What about the “Vapor sorption (25° C./80% RH)” value [3] of the same compound?
Answer: 1.45%

Question: And the “DVS curve vapor sorption” value ([3]; at 0% RH to 80% RH)?
Answer: less than 1.46%

Question: What about the Risk evaluation [3] of the same compound?
Answer: None

Question: What about the Crystal form change ([4]; SGF, 1 h) of the same compound?
Answer: No

Question: What about the Crystal form change [4, 7] of the same compound?
Answer: Clear

Question: What about the Crystal form change [4, 8] of the same compound?
Answer: Clear

Question: What about the pH ([4]; FaSSIF, 1 h, listed as Benzenesulfonate Crystal form) of the same compound?
Answer: 6.0

Question: And the pH ([4]; FaSSIF, 4 h, listed as Benzenesulfonate Crystal form)?
Answer: 6.0

Question: And the pH ([4]; FaSSIF, 24 h, listed as Benzenesulfonate Crystal form)?
Answer: 6.0

Question: And the pH ([4]; FeSSIF, 1 h, listed as Benzenesulfonate Crystal form)?
Answer: 5.0

Question: And the pH ([4]; FeSSIF, 4 h, listed as Benzenesulfonate Crystal form)?
Answer: 5.0

Question: What about the pH ([4]; FeSSIF, 24 h, listed as Benzenesulfonate Crystal form) of the same compound?
Answer: 5.0

Question: What about the pH ([4]; H2O, 1 h, listed as Benzenesulfonate Crystal form) of the same compound?
Answer: 2.5

Question: What about the pH ([4]; H2O, 4 h, listed as Benzenesulfonate Crystal form) of the same compound?
Answer: 2.5

Question: And the pH ([4]; H2O, 24 h, listed as Benzenesulfonate Crystal form)?
Answer: 2.5

Question: And the pH ([4]; SGF, 1 h, listed as Benzenesulfonate Crystal form)?
Answer: 1.9

Question: And the pH [4, 7]?
Answer: 1.9

Question: And the pH [4, 8]?
Answer: 1.9

Question: And the “solubility in each system compared with that of the free base crystal form A” value ([4]; water, SGF, FaSSIF, FeSSIF)?
Answer: significantly improved

Question: And the AUC(0-t) [5]?
Answer: 7430 ng·h/mL

Question: And the Cmax [5]?
Answer: 6600 ng/mL

Question: What about the Tmax [5] of the same compound?
Answer: 30 min

Question: And the half-life [5]?
Answer: 71.4 min

Question: And the “crystal form after being stored for 6 months” value [6]?
Answer: unchanged

Question: What about the “stability after being stored for 6 months” value [6] of the same compound?
Answer: excellent stability

Question: And the “Purity/initial purity (%)” value (Solid stability, 1 week; 25° C./60% RH)?
Answer: 100.0%

Question: What about the “Purity (area %)” value (Solid stability, 1 week; 25° C./60% RH) of the same compound?
Answer: 99.35 area %

Question: And the Crystal form change (Solid stability, 1 week; 25° C./60% RH)?
Answer: No

Question: What about the “Purity/initial purity (%)” value (Solid stability, 1 week; 40° C./75% RH) of the same compound?
Answer: 99.9%

Question: What about the “Purity (area %)” value (Solid stability, 1 week; 40° C./75% RH) of the same compound?
Answer: 99.20 area %

Question: And the Crystal form change (Solid stability, 1 week; 40° C./75% RH)?
Answer: No

Question: Which particle size [2] does the source give for `C[C@H](Cc1cnn[nH]1)OCC(=O)N1Cc2cnc(NC3Cc4ccccc4C3)nc2C1` [Free base crystal form A] here?
Answer: less than 50 μm

Question: What about the “After DVS test Whether the crystal form is changed” value [3] of the same compound?
Answer: No

Question: What about the Hygroscopicity [3] of the same compound?
Answer: Slightly

Question: And the “Vapor sorption (25° C./80% RH)” value [3]?
Answer: 1.03%

Question: What about the Risk evaluation [3] of the same compound?
Answer: None

Question: What about the Crystal form change ([4]; FaSSIF, 1 h) of the same compound?
Answer: No

Question: And the Crystal form change ([4]; FaSSIF, 4 h)?
Answer: No

Question: What about the Crystal form change ([4]; FaSSIF, 24 h) of the same compound?
Answer: No

Question: And the Crystal form change ([4]; FeSSIF, 1 h)?
Answer: No

Question: And the Crystal form change ([4]; FeSSIF, 4 h)?
Answer: No

Question: And the Crystal form change ([4]; FeSSIF, 24 h)?
Answer: No

Question: And the Crystal form change ([4]; H2O, 1 h)?
Answer: No

Question: And the Crystal form change ([4]; H2O, 4 h)?
Answer: No

Question: What about the Crystal form change ([4]; H2O, 24 h) of the same compound?
Answer: No

Question: And the Crystal form change ([4]; SGF, 1 h)?
Answer: No

Question: What about the Crystal form change ([4]; SGF, 4 h) of the same compound?
Answer: No

Question: What about the Crystal form change ([4]; SGF, 24 h) of the same compound?
Answer: No

Question: What about the pH ([4]; FaSSIF, 1 h) of the same compound?
Answer: 6.5

Question: And the pH ([4]; FaSSIF, 4 h)?
Answer: 6.6

Question: What about the pH ([4]; FaSSIF, 24 h) of the same compound?
Answer: 6.6

Question: What about the pH ([4]; FeSSIF, 1 h) of the same compound?
Answer: 5.1

Question: And the pH ([4]; FeSSIF, 4 h)?
Answer: 5.1

Question: And the pH ([4]; FeSSIF, 24 h)?
Answer: 5.1

Question: And the pH ([4]; H2O, 1 h)?
Answer: 8.4

Question: What about the pH ([4]; H2O, 4 h) of the same compound?
Answer: 8.4

Question: And the pH ([4]; H2O, 24 h)?
Answer: 8.6

Question: And the pH ([4]; SGF, 1 h)?
Answer: 1.9

Question: And the pH ([4]; SGF, 4 h)?
Answer: 1.9

Question: What about the pH ([4]; SGF, 24 h) of the same compound?
Answer: 2.0

Question: And the “Purity/initial purity (%)” value (Solid stability, 1 week; 25° C./60% RH)?
Answer: 100.0%

Question: What about the “Purity (area %)” value (Solid stability, 1 week; 25° C./60% RH) of the same compound?
Answer: 98.67 area %

Question: What about the Crystal form change (Solid stability, 1 week; 25° C./60% RH) of the same compound?
Answer: No

Question: What about the “Purity/initial purity (%)” value (Solid stability, 1 week; 40° C./75% RH) of the same compound?
Answer: 100.0%

Question: And the “Purity (area %)” value (Solid stability, 1 week; 40° C./75% RH)?
Answer: 98.60 area %

Question: And the Crystal form change (Solid stability, 1 week; 40° C./75% RH)?
Answer: No
